“Also recorded” adds a separate entry of the source.
Each sequence was assayed on HLA alleles of class II (assay: Affinity of epitopes for HLA alleles of class II). Settings: LmLRAB-IIA peptides, Table 2.
Format: binding, human
Excerpt: The multiepitopic peptide compounds (24 to 40-mer), having a high affinity with a maximized number of HLA molecules of class I and of class II, such as the affinities for the alleles HLA of class I and HLA of class II of the epitopes in the peptides of the sequences SEQ ID NO: 22, 23, 65, 66, 69, 73, 77, 96, 97, 137, 138, and 157, 185, have a high immunoprevalent potential corresponding to an optimal vaccine coverage, in particular for the populations concerned. The degree of coverage of the peptide compounds of the invention show a very high added value compared with the peptides of the prior art.
For “SVVGRHLSIVADHMP (Leishmania major) [SEQ ID NO: 83]”, the “Concatenation affinity for HLA alleles of class II” value (from here on “Concatenation affinity”) was “HLA-DRB1*15:01”.
“VGRHLSIVADHMPHL (Leishmania major) [SEQ ID NO: 85]” was tested, and the “Concatenation affinity” value was “HLA-DRB1*03:01,; also recorded: HLA-DRB3*01:01,; also recorded: HLA-DRB1*13:02,; also recorded: HLA-DRB1*15:01,”.

Same assay, conditions: LmlRAB-IIB core, Table 2
For “LFTDVHYSE (Leishmania major) [SEQ ID NO: 124]”, the “Concatenation affinity” value was “HLA-DRB1*03:01,; also recorded: HLA-DRB3*01:01,; also recorded: DPB1*04:01,; also recorded: HLA-DPA1*02:01/; also recorded: HLA-DPA1*03:01/; also recorded: DPB1*04:02”.
With “NAIVTSRKV (Leishmania major) [SEQ ID NO: 125]” the “Concatenation affinity” value was “HLA-DRB1*07:01”.

Same assay, conditions: LmlRAB-IIB peptides, Table 2
For “KGRSENAIVTSRKVQ (Leishmania major) [SEQ ID NO: 106]”, the “Concatenation affinity” value was “HLA-DRB1*01:01, HLA-DRB1*07:01,; also recorded: HLA-DRB1*11:01, HLA-DRB1*12:01,; also recorded: HLA-DRB5*01:01”.
“LFTDVHYSEVSAKTK (Leishmania major) [SEQ ID NO: 108]” was tested, and the “Concatenation affinity” value was “HLA-DRB1*01:01, HLA-DRB1*04:01,; also recorded: HLA-DRB1*07:01, HLA-DRB1*09:01,; also recorded: HLA-DRB5*01:01, HLA-DPA1*01:03/DPB1*02:01,; also recorded: HLA-DPA1*01/DPB1*04:01,; also recorded: HLA-DPA1*02:01/HLA-DPB1*14:01”.
For “NAIVTSRKVQEEVFD (Leishmania major) [SEQ ID NO: 109]”, the “Concatenation affinity” value was “HLA-DRB1*03:01, HLA-DRB1*07:01,; also recorded: HLA-DRB1*08:02, HLA-DRB1*11:01,; also recorded: HLA-DRB1*12:01”.
With “RKVQEEVFDLFTDVH (Leishmania major) [SEQ ID NO: 111]” the “Concatenation affinity” value was “HLA-DRB1*03:01, HLA-DRB1*04:01,; also recorded: HLA-DPA1*02:01/DPB1*05:01,; also recorded: HLA-DPA1*03:01/DPB1*04:02”.
With “RSENAIVTSRKVQEE (Leishmania major) [SEQ ID NO: 112]” the “Concatenation affinity” value was “HLA-DRB1*01:01, HLA-DRB1*03:01,; also recorded: HLA-DRB1*07:01, HLA-DRB1*11:01,; also recorded: HLA-DRB5*01:01”.
With “SENAIVTSRKVQEEV (Leishmania major) [SEQ ID NO: 113]” the “Concatenation affinity” value was “HLA-DRB1*03:01, HLA-DRB1*07:01,; also recorded: HLA-DRB1*08:02, HLA-DRB1*11:01,; also recorded: HLA-DRB1*12:01”.
For “SRKVQEEVFDLFTDV (Leishmania major) [SEQ ID NO: 114]”, the “Concatenation affinity” value was “HLA-DRB1*03:01, HLA-DPA1*01:03/DPB1*02:01,; also recorded: HLA-DPA1*02:01/DPB1*05:01,; also recorded: HLA-DPA1*03:01/DPB1*04:02”.
In the case of “TSRKVQEEVFDLFTD (Leishmania major) [SEQ ID NO: 115]”, the “Concatenation affinity” value is reported as “HLA-DRB1*03:01, HLA-DPA1*01:03/DPB1*02:01,; also recorded: HLA-DPA1*02:01/DPB1*05:01,; also recorded: HLA-DPA1*03:01/HLA-DPB1*04:02,; also recorded: HLA-DPA1*02:01/HLA-DPB1*14:01”.

Same assay, conditions: PSA KC-2.6 core, Table 3
With “RSGEGYFLT (listed as Leishmania infantum) [SEQ ID NO: 149]” the “Concatenation affinity” value was “HLA-DRB1*03:01,; also recorded: HLA-DRB3*01:01”.

Same assay, conditions: PSA KC-2.6 peptides, Table 3
With “RSGEGYFLTDEKTSL (listed as Leishmania infantum) [SEQ ID NO: 143]” the “Concatenation affinity” value was “HLA-DRB1*01:01, HLA-DRB1*03:01,; also recorded: HLA-DRB1*04:01, HLA-DRB3*01:01,; also recorded: HLA-DPA1*03:01/DPB1*14:01”.
With “SGEGYFLTDEKTSLV (listed as Leishmania infantum) [SEQ ID NO: 144]” the “Concatenation affinity” value was “HLA-DRB1*01:01, HLA-DRB1*03:01,; also recorded: HLA-DRB1*04:01, HLA-DRB1*04:05,; also recorded: HLA-DRB1*07:01, HLA-DRB1*11:01,; also recorded: HLA-DRB3*01:01, HLA-DRB3*02:02,; also recorded: HLA-DPA1*02:01/DPB1*01:01”.

Same assay, conditions: PSA KC-2.7 core, Table 3
With “MIRDLDFSN (listed as Leishmania infantum) [SEQ ID NO: 176]” the “Concatenation affinity” value was “HLA-DRB1*03:01,; also recorded: HLA-DRB1*04:01,; also recorded: HLA-DRB1*04:05,; also recorded: HLA-DRB1*08:02”.

Same assay, conditions: PSA KC-2.7 peptides, Table 3
“MPSGSDYSHSMIRDL (listed as Leishmania infantum) [SEQ ID NO: 163]” was tested, and the “Concatenation affinity” value was “HLA-DRB1*04:05, HLA-DRB1*07:01,; also recorded: HLA-DRB1*09:01, HLA-DRB5*01:01”.
In the case of “PSGSDYSHSMIRDLD (listed as Leishmania infantum) [SEQ ID NO: 164]”, the “Concatenation affinity” value is reported as “HLA-DRB1*04:05, HLA-DRB1*07:01,; also recorded: HLA-DRB1*09:01, HLA-DRB5*01:01,; also recorded: LA-DPA1*02:01/DPB1*01:01”.
In the case of “SDYSHSMIRDLDFSN (listed as Leishmania infantum) [SEQ ID NO: 166]”, the “Concatenation affinity” value is reported as “HLA-DRB1*04:05, HLA-DRB1*07:01,; also recorded: HLA-DRB1*12:01, HLA-DRB1*09:01,; also recorded: HLA-DRB4*01:01,; also recorded: HLA-DPA1*02:01/DPB1*14:01”.
For “SGSDYSHSMIRDLDF (listed as Leishmania infantum) [SEQ ID NO: 167]”, the “Concatenation affinity” value was “HLA-DRB1*01:01, HLA-DRB1*04:05,; also recorded: HLA-DRB1*07:01, HLA-DRB1*09:01,; also recorded: HLA-DRB5*01:01,; also recorded: HLA-DPA1*02:01/DPB1*14:01”.
With “SHSMIRDLDGSNMGL (SHSMIRDLDFSNMGL; listed as Leishmania infantum) [SEQ ID NO: 168]” the “Concatenation affinity” value was “HLA-DRB1*03:01, HLA-DRB1*04:01,; also recorded: HLA-DRB1*04:05, HLA-DRB1*08:02,; also recorded: HLA-DRB1*12:01, HLA-DRB4*01:01”.
